From patent publication US20040014676A1, “SRC kinase inhibitors useful for treating osteoporosis” (priority 2001, published 2004)

Molecular target: T1, Src kinase (Homo sapiens, UniProt P12931)
T1 construct: purchased Upstate Bioteolnology (sic; Upstate Biotechnology); later HMR stock 27597-019E1 #14-117
Experiment: Phosphorylation assay of Src kinase inhibitors (radiometric, 96 well filter plate)
Type: biochemical
Settings: duplicates, tested in the range of 400-0.098 µM; 10 µM peptide substrate (FIYGAFKKKKNH2), 5 µM unlabeled ATP, room temperature 30 min; read-out: IC50
Description: The present invention provides novel compounds of Formulae I through XVIII discussed above. The following compounds which fall within Formulae I through XVIII are characterized by structure, IUPAC name and activity using phosphorylation assay for protein tyrosine Src kinase.
Phosphorylation Assay of Src Kinase Inhibitors
The activity of Src kinase was measured in a 96 well plate phosphorylation assay where the transfer of gamma phosphate from ATP to peptide substrate was measured radiometrically. […] Ki values were determined experimentally for some of the inhibitors. The phosphocellulose filter plates (Millipore catalog #MAPH NOB) were prewet prior to the phosphorylation assay by addition of 100 1 per well of 30 mM MES buffer+0.4 mg/ml BSA. After a 20-minute incubation, the buffer was removed completely via a Millipore vacuum manifold. The phosphorylation assay was then set up in the filter plates in a total volume per well of 60 1. The 60 1 consisted of compound (see concentration ranges above), a 1:100 dilution of Src kinase (originally Upstate Bioteolnology, #14-117; later HMR stock 27597-019E1) or assay buffer alone (for no enzyme control wells), 10 M peptide substrate (FIYGAFKKKKNH2), 5 M unlabeled ATP and a 1:500 dilution of P-ATP (New England Nuclear, catalog #NEG-602H, 2000 Ci/mmol). The reaction was mixed and incubated at room temperature for 30 min. The kinase reactions were stopped by addition of 150 mM H3PO4 and incubated for 10 minutes. The filter plate wells were filtered and washed seven times with 200 1 per well of 150 mM H3PO4. Finally, the filter plate was placed into a Packard plate adapter (Packard catalog #600517B), 35 1 of Microscint-20 (Packard catalog #6013621) was added to each well, the plate was sealed (TopSeal A sealers; Packard catalog #6005185) and counted on a Packard TopCount.

| Compound | IC50 [µM] |
| --- | --- |
| 3-[[[4-[[[1-OXO-2(S)-AMINO-3- HYDROXYPHENYL)]PROPYL]AMINO]- BUTYL]CARBONYL]AMINO]- NAPHTHALENE-2-ACETAMIDO)- CARBOXAMIDE [Example 91] | 209 |
| N[C@@H](Cc1ccc(O)cc1)C(=O)NCCCCOc1cc2ccccc2cc1C(=O)NCCO [Example 101, 3-[[4-[[1-OXO-2(S)-AMINO-3-(4- HYDROXYPHENYL)]PROPYL]AMINO]- BUTOXY]NAPHTHALENE-2-[N- (2-HYDROXYETHYL)]CARBOXAMIDE] | 15 |
| NCCCCC(NC(=O)c1cc2ccccc2cc1OCCCCNC(=O)[C@@H](N)Cc1ccc(O)cc1)C(N)=O (stereo partly drawn) [Example 8, 3-[4-[[2(S)-AMINO-3-(4-HYDROXY- PHENYL)-1-OXOPROPYL]AMINO]- BUTOXY]-NAPHTHALENE-2-[N-[[(4- AMINOBUTYL)(AMIDO)]METHYL]- ACETAMIDO]CARBOXAMIDE] | 348 |
| NC(=O)CNC(=O)c1cc2ccccc2cc1OCCCCN1CCC[C@H](c2ccccc2)[C@H](N)C1=O [Example 77, 3-[4-[(2-OXO-3(R)-AMINO-4(R)- PHENYL)HEXAMETHYLENEIMIN-1- YL]BUTOXY]-NAPHTHALENE-2-(N- ACETAMIDO)CARBOXAMIDE] | 6 |
| NC(=O)CNC(=O)c1cc2ccccc2cc1OCCCCNC(=O)[C@@H](N)Cc1ccc(O)cc1 [Example 5, 3-[4-[[2(S)-AMINO-3-(4-HYDROXY- PHENYL)-1-OXOPROPYL]AMINO]- BUTOXY]-2-[N-ACETAMIDO]- NAPHTHALENECARBOXAMIDE] | 0.47 |
| NC(=O)CNC(=O)c1cc2ccccc2cc1OCCCCNC(=O)[C@@H](N)Cc1cccs1 [Example 55, 3-[4-[[[2(S)-AMINO-3-(THIOPHEN-2-YL)- 1-OXO]PROPYL]AMINO]BUTOXY]- NAPHTHALENE-2-(N-ACETAMIDO)- CARBOXAMIDE] | 1.35 |
| CC(C)(C)C(=O)NCCCCOc1cc2ccccc2cc1C(=O)NCC(N)=O [Example 66, 3-[4-[[(1-OXO-2,2-DIMETHYL)PROPYL]- AMINO]BUTOXY]-NAPHTHALENE-2- (N-ACETAMIDO)CARBOXAMIDE] | 6 |
| N[C@@H](Cc1ccc(O)cc1)C(=O)NCCCOc1cc2ccccc2cc1C(=O)NCC(=O)NCCCO [Example 7, 3-[3-[[2(S)-AMINO-3-(4-HYDROXY- PHENYL)-1-OXOPROPYL]AMINO]- PROPOXY]-N-[2-[(3-HYDROXY- PROPYL)AMINO]-2-OXOETHYL]-2- NAPHTHALENECARBOXAMIDE] | 45 |
| N#C/C(=C\c1ccc(O)cc1)C(=O)NCCCCOc1cc2ccccc2cc1C(=O)NCC(N)=O [Example 149, 3-[[4-[N-[1-OXO-2-(CYANO)-3-(4- HYDROXYPHENYL)]PROPEN-2-YL]- AMINO] BUTOXY]-NAPHTHALENE-2- [N-ACETAMIDO]CARBOXAMIDE] | 27 |
| C[C@H](N)C(=O)NCCCCOc1cc2ccccc2cc1C(=O)NCC(N)=O [Example 65, 3-[4-[[(1-OXO-2(S)-AMINO)PROPYL]- AMINO]BUTOXY]-NAPHTHALENE-2- (N-ACETAMIDO)CARBOXAMIDE] | 101 |
| NC(=O)CCNC(=O)c1cc2ccccc2cc1OCCCCNC(=O)[C@@H](N)Cc1ccc(O)cc1 [Example 102] | 52 |
| NC(=O)c1cc2ccccc2cc1OCCCCNC(=O)[C@@H](N)Cc1ccc(O)cc1 [Example 6, 3-[4-[[2(S)-AMINO-3-(4-HYDROXY- PHENYL)-1-OXOPROPYL]AMINO]- BUTOXY]-NAPHTHALENE-2- CARBOXAMIDE] | 47 |
| NC(=O)CNC(=O)c1cc2ccccc2cc1OCCCCNC(=O)[C@@H](N)C1CCCCC1 [Example 50, 3-[[[4-(2(S)-AMINO-2-CYCLOHEXYL-1- OXO)ETHYL]AMINO]BUTOXY]- NAPHTHALENE-2-(N-ACETAMIDO)- CARBOXAMIDE] | 2 |
| NC(=O)CNC(=O)c1cc2ccccc2cc1OCCCCNC(=O)C1(N)Cc2ccccc2C1 [Example 40, 3-[4-[n-[1-OXO-2-(2-AMINOINDAN-2- YL)]ETHYL]-AMINOBUTOXY]- NAPHTHALENE-2-(N- ACETAMIDO)CARBOXAMIDE] | 12 |
| NC(=O)CNC(=O)c1cc2ccccc2cc1OCCCCNC(=O)[C@@H](N)Cc1ccc(O)c([N+](=O)[O-])c1 [Example 54, 3-[4-[[[2(S)-AMINO-3-(3-NITRO-4- HYDROXY)PHENYL-1-OXO]PROPYL]- AMINO]BUTOXY]-NAPHTHALENE-2- (N-ACETAMIDO)CARBOXAMIDE] | 0.66 |
| NC(=O)CNC(=O)c1cc2ccccc2cc1OCCCCNC(=O)[C@@H](N)Cc1ccc(-c2ccccc2)cc1 [Example 38, 3-[[4-[[2(S)-AMINO-3-(BIPHEN-1-YL)-1- OXO]PROPYL]AMINO]BUTOXY]- NAPHTHALENE-2-(N- ACETAMIDO)CARBOXAMIDE] | 30 |
| NC(=O)CC(=O)Nc1cc2ccccc2cc1OCCCCNC(=O)[C@@H](N)Cc1csc2ccccc12 [Compound 152, (2S)-2-amino-3-benzo[b]thiophen-3-yl-N-{4-[3-(2-carbamoylacetylamino)(2-naphthyloxy)]butyl}propanamide] | 1 |
| NC(=O)CNC(=O)c1cc2ccccc2cc1OCCCCNC(=O)[C@@H](N)c1ccccc1 [Example 37, 3-[[4-[(2(S)-AMINO-2-PHENYL-1- OXO)ETHYL]AMINO]BUTOXY]- NAPHTHALENE-2-(N- ACETAMIDO)CARBOXAMIDE] | 3.3 |
| NC(=O)CNC(=O)c1cc2ccccc2cc1OCCCCNC(=O)[C@@H](N)Cc1ccc(I)cc1 [Example 62, 3-[4-[[[1-OXO-2(S)-AMINO-3(4- IODOPHENYL)]PROPYL]AMINO]- BUTOXY]-NAPHTHALENE-2-(N- ACETAMIDO)CARBOXAMIDE] | 6.25 |
| NC(=O)CNC(=O)c1cc2ccccc2cc1OCCCCCNC(=O)[C@@H](N)Cc1ccc(O)cc1 [Example 94, 3-[5-[[[1-OXO-2(S)-AMINO-3-(4- HYDROXYPHENYL)]PROPYL]AMINO]- PENTOXY]NAPHTHALENE-2-(N- ACETAMIDO)CARBOXAMIDE] | 6.6 |
| NC(=O)CNC(=O)c1cc2ccccc2cc1OCCCC(NC(=O)[C@H](N)Cc1csc2ccccc12)C(=O)O (stereo partly drawn) [Example 97, 3-[[4-[[1-OXO-2(S)-AMINO-3-(BENZO- THIOPHEN-3-YL)]PROPYL]AMINO][4- CARBOXY]BUTOXY]NAPHTHALENE-2- (N-ACETAMIDO)CARBOXAMIDE] | 26 |
| NC(=O)CNC(=O)c1cc2ccccc2cc1OCCCCN1CCNC(Cc2ccccc2)C1=O (stereo in doubt) [Example 30, 3-[4-[(2-OXO-3-(R)-BENZYL)- PIPERAZIN-1-YL]BUTOXY]- NAPHTHALENE-2-(N- ACETAMIDO)CARBOXAMIDE] | 8.8 |
| C[C@H](c1ccc(O)cc1)[C@H](N)C(=O)NCCCCOc1cc2ccccc2cc1C(=O)NCC(N)=O [Example 78, 3-[4-[[[(1-OXO-2-AMINO-3(R)-METHYL- 3-(4-HYDROXY)PHENYL)]PROPYL]- AMINO]BUTOXY]-NAPHTHALENE-2- (N-ACETAMIDO)CARBOXAMIDE] | 6 |
| NC(=O)CNC(=O)c1cc2ccccc2cc1NC(=O)CCCNC(=O)[C@@H](N)Cc1ccc(O)cc1 [Example 90, 3-[[[3-[[[1-OXO-2(S)-AMINO-3- HYDROXYPHENYL)]PROPYL]AMINO]- PROPYL]CARBONYL]AMINO]- NAPHTHALENE-2-ACETAMIDO)- CARBOXAMID] | 209 |
| C=CCOC(=O)C(CCCOc1cc2ccccc2cc1C(=O)NCC(N)=O)NC(=O)[C@H](N)Cc1csc2ccccc12 (stereo partly drawn) [Example 98, 3-[[4-[[1-OXO-2(S)-AMINO-3-(BENZO- THIOPHEN-3-YL)]PROPYL]AMINO][4- ACRYLOXYCARBOXY]BUTOXY]NAPHTHALENE-2-(N-ACETAMIDO)- CARBOXAMIDE] | 2.5 |
| NCC(=O)NCCCCOc1cc2ccccc2cc1C(=O)NCC(N)=O [Example 64, 3-[4-[[(1-OXO-2-AMINO)ETHYL]- AMINO]BUTOXY]-NAPHTHALENE-2- (N-ACETAMIDO)CARBOXAMIDE] | 68 |
| NC(=O)CNC(=O)c1cc2ccccc2cc1OCCCCNC(=O)[C@@H](N)C(c1ccccc1)c1ccccc1 [Example 39, 3-[[4-[(2(S)-AMINO-3,3-BISPHENYL-1- OXO)PROPYL]AMINO]BUTOXY]- NAPHTHALENE-2-(N-ACETAMIDO)- CARBOXAMIDE] | 1.7 |
| NC(=O)CNC(=O)c1cc2ccccc2cc1OCCCCNC(=O)[C@@H](N)Cc1ccc2ccccc2c1 [Example 13, 3-[4-[[2(S)-AMINO-3-(NAPTHYL-2-YL)-1- OXOPROPYL]AMINO]BUTOXY]- NAPHTHALENE-2-[N-(2- AMIDOMETHYL)]CARBOXAMIDE] | 0.45 |
| CCNC(=O)CNC(=O)c1cc2ccccc2cc1OCCCCN(C)C(=O)C(N)Cc1csc2ccccc12 (stereo not drawn) [Example 154, 3-[[[4-[3-(BENZOTHIOPHEN-3-YL)-2- AMINO-1-OXO]PROPYL](N-METHYL)- AMINO]BUTOXY]-NAPHTHALENE-2- [(N-(N-ETHYL)ACETAMIDO]- CARBOXAMIDE] | 4 |
| N=C(N)NCCCC(NC(=O)c1cc2ccccc2cc1OCCCCNC(=O)[C@@H](N)Cc1ccc(O)cc1)C(N)=O (stereo partly drawn) [Example 11, 3-[4-[[2(S)-AMINO-3-(4-HYDROXY- PHENYL)-1-OXOPROPYL]AMINO]- BUTOXY]-NAPHTHALENE-2-[N- [[AMIDO][(3-AMINOIMINOMETHYL)- PROPYLAMINO]METHYL]]- CARBOXAMIDE] | 113 |
